Reference: patent US20120121591A1 (priority 2009, published 2012)

Experiments:
Assay type in all cases: cell-based
[1] = tested on: IL-2 secretion from T cells in human whole blood; conditions: read-out: WB (IL-2) IC50 (nM, Avg)
hKv1.3 = hKv1.3 (Homo sapiens, UniProt P22001); assay: cell-based; conditions: Kv1.3 (IWQ) IC50 (nM, Avg)
[2] = tested on: IFN-g secretion from T cells in human whole blood; conditions: read-out: WB (IFNg) IC50 (nM, Avg)

Sequence of hKv1.3 (P22001 whole entry): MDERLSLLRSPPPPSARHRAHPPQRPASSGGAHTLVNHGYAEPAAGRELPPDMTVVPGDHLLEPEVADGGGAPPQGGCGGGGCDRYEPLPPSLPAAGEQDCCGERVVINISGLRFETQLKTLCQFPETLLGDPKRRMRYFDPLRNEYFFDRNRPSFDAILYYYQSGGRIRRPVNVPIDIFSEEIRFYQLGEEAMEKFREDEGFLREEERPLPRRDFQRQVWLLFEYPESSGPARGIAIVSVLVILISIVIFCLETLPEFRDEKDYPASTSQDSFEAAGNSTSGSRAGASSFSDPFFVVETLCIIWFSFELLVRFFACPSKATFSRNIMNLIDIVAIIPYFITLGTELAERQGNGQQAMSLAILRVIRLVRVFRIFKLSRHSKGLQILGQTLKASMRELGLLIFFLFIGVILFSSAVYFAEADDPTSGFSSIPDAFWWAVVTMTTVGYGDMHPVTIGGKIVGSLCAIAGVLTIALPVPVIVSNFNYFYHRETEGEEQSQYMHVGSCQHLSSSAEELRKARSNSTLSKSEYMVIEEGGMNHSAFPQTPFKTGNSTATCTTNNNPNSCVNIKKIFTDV

Structure (SMILES)	IC50 [1] [nM]	IC50 (hKv1.3) [nM]	IC50 [2] [nM]
CC[C@H](C)[C@@H]1NC(=O)[C@@H](NC(=O)[C@H](CO)NC(=O)[C@@H](N)CCCNC(=N)N)CSSC[C@@H](C(=O)O)NC(=O)[C@H]([C@@H](C)O)NC(=O)CNC(=O)[C@@H]2CSSC[C@@H]3NC(=O)[C@H](CCCCN)NC(=O)[C@H](Cc4ccccc4)NC(=O)[C@H](C)NC(=O)[C@H]([C@@H](C)O)NC(=O)[C@H](CSSC[C@H](NC(=O)[C@H](Cc4ccccc4)NC(=O)[C@H](CO)NC(=O)[C@H](CC(C)C)NC(=O)[C@H](CCCNC(=N)N)NC(=O)[C@H](Cc4ccc(O)cc4)NC(=O)[C@H](CCCCN)NC(=O)[C@H](C)NC(=O)[C@H](CO)NC(=O)[C@H](Cc4c[nH]cn4)NC(=O)[C@H](CCCCN)NC3=O)C(=O)N[C@@H](CCCNC(=N)N)C(=O)N[C@@H](CCCCN)C(=O)N[C@@H]([C@@H](C)O)C(=O)N2)NC(=O)[C@H](CCCNC(=N)N)NC(=O)[C@H](CO)NC(=O)[C@H](CCCCN)NC(=O)[C@@H]2CCCN2C(=O)[C@H]([C@@H](C)CC)NC(=O)[C@H]([C@@H](C)O)NC(=O)[C@H](CC(=O)O)NC1=O [[Lys16,A1a21]ShK]	0.872	0.076	1.33
CCC[C@@H]1NC(=O)[C@H](CO)NC(=O)[C@H](Cc2c[nH]cn2)NC(=O)[C@H](CCCCN)NC(=O)[C@@H]2CSSC[C@@H]3NC(=O)[C@H]([C@@H](C)O)NC(=O)[C@H](CCCCN)NC(=O)[C@H](CCCNC(=N)N)NC(=O)[C@H](CSSC[C@H](NC(=O)[C@H](CCCNC(=N)N)NC(=O)[C@H](CO)NC(=O)[C@H](CCCCN)NC(=O)[C@@H]4CCCN4C(=O)[C@H]([C@@H](C)CC)NC(=O)[C@H]([C@@H](C)O)NC(=O)[C@H](CC(=O)O)NC(=O)[C@H]([C@@H](C)CC)NC(=O)[C@@H](NC(=O)[C@H](CO)NC(=O)[C@@H](N)CCCNC(=N)N)CSSC[C@@H](C(=O)NC(C)(C)C(N)=O)NC(=O)[C@H]([C@@H](C)O)NC(=O)CNC3=O)C(=O)N[C@@H]([C@@H](C)O)C(=O)N[C@@H](C)C(=O)N[C@@H](Cc3ccccc3)C(=O)N[C@@H](CCCCN)C(=O)N2)NC(=O)[C@H](Cc2ccccc2)NC(=O)[C@H](CO)NC(=O)[C@H](CC(C)C)NC(=O)[C@H](CCCNC(=N)N)NC(=O)[C@H](Cc2ccc(O)cc2)NC(=O)[C@H](CCCCN)NC1=O [[Lys16,Nva21]ShK-Aib-amide]	0.483	0.03	0.722
CC[C@H](C)[C@@H]1NC(=O)[C@@H](NC(=O)[C@H](CO)NC(=O)[C@@H](N)CCCNC(=N)N)CSSC[C@@H](C(=O)O)NC(=O)[C@H]([C@@H](C)O)NC(=O)CNC(=O)[C@@H]2CSSC[C@@H]3NC(=O)[C@H](CCC(N)=O)NC(=O)[C@H](Cc4ccccc4)NC(=O)[C@H](C)NC(=O)[C@H]([C@@H](C)O)NC(=O)[C@H](CSSC[C@H](NC(=O)[C@H](Cc4ccccc4)NC(=O)[C@H](CO)NC(=O)[C@H](CC(C)C)NC(=O)[C@H](CCCNC(=N)N)NC(=O)[C@H](Cc4ccc(O)cc4)NC(=O)[C@H](CCCCN)NC(=O)[C@H](CCSC)NC(=O)[C@H](CO)NC(=O)[C@H](Cc4c[nH]cn4)NC(=O)[C@H](CCCCN)NC3=O)C(=O)N[C@@H](CCCNC(=N)N)C(=O)N[C@@H](CCCCN)C(=O)N[C@@H]([C@@H](C)O)C(=O)N2)NC(=O)[C@H](CCCNC(=N)N)NC(=O)[C@H](CO)NC(=O)[C@H](CCCCN)NC(=O)[C@@H]2CCCN2C(=O)[C@H]([C@@H](C)CC)NC(=O)[C@H]([C@@H](C)O)NC(=O)[C@H](Cc2cccc3ccccc23)NC1=O [[1-Nal5]ShK]	70.4	3.3	31.9
CCCC[C@@H]1NC(=O)[C@H](CO)NC(=O)[C@H](Cc2c[nH]cn2)NC(=O)[C@H](CCC(=O)O)NC(=O)[C@@H]2CSSC[C@@H]3NC(=O)[C@H]([C@@H](C)O)NC(=O)[C@H](CCCNC(=N)N)NC(=O)[C@H](CCCNC(=N)N)NC(=O)[C@H](CSSC[C@H](NC(=O)[C@H](CCCNC(=N)N)NC(=O)[C@H](CO)NC(=O)[C@H](CCCCN)NC(=O)[C@@H]4CCCN4C(=O)[C@H]([C@@H](C)CC)NC(=O)[C@H]([C@@H](C)O)NC(=O)[C@H](CC(=O)O)NC(=O)[C@H]([C@@H](C)CC)NC(=O)[C@@H](NC(=O)[C@H](CO)NC(=O)[C@@H](N)CCCNC(=N)N)CSSC[C@@H](C(N)=O)NC(=O)[C@H]([C@@H](C)O)NC(=O)CNC3=O)C(=O)N[C@@H]([C@@H](C)O)C(=O)N[C@@H](C)C(=O)N[C@@H](Cc3ccccc3)C(=O)N[C@@H](CCCCN)C(=O)N2)NC(=O)[C@H](Cc2ccccc2)NC(=O)[C@H](CO)NC(=O)[C@H](CC(C)C)NC(=O)[C@H](CCCNC(=N)N)NC(=O)[C@H](Cc2ccc(O)cc2)NC(=O)[C@H](CCCCN)NC1=O [[Glu18, Lys16, Nle21,Arg30]ShK-amide]	1.22	0.226	0.969
CC[C@H](C)[C@@H]1NC(=O)[C@@H](NC(=O)[C@H](CO)NC(=O)[C@@H](N)CCCNC(=N)N)CSSC[C@@H](C(N)=O)NC(=O)[C@H]([C@@H](C)O)NC(=O)CNC(=O)[C@@H]2CSSC[C@@H]3NC(=O)[C@H](CCCCN)NC(=O)[C@H](Cc4ccccc4)NC(=O)[C@H](C)NC(=O)[C@H]([C@@H](C)O)NC(=O)[C@H](CSSC[C@H](NC(=O)[C@H](Cc4cccc5ccccc45)NC(=O)[C@H](CO)NC(=O)[C@H](CC(C)C)NC(=O)[C@H](CCCNC(=N)N)NC(=O)[C@H](Cc4ccc(O)cc4)NC(=O)[C@H](CCCCN)NC(=O)[C@H](CCSC)NC(=O)[C@H](CO)NC(=O)[C@H](Cc4c[nH]cn4)NC(=O)[C@H](CCCCN)NC3=O)C(=O)N[C@@H](CCCNC(=N)N)C(=O)N[C@@H](CCCCN)C(=O)N[C@@H]([C@@H](C)O)C(=O)N2)NC(=O)[C@H](CCCNC(=N)N)NC(=O)[C@H](CO)NC(=O)[C@H](CCCCN)NC(=O)[C@@H]2CCCN2C(=O)[C@H]([C@@H](C)CC)NC(=O)[C@H]([C@@H](C)O)NC(=O)[C@H](CC(=O)O)NC1=O [[Lys16,1-Na127]ShK-amide]	3.95	0.299	2.94
CC[C@H](C)[C@@H]1NC(=O)[C@@H](NC(=O)[C@H](CO)NC(=O)[C@@H](N)CCCNC(=N)N)CSSC[C@@H](C(N)=O)NC(=O)[C@H]([C@@H](C)O)NC(=O)CNC(=O)[C@@H]2CSSC[C@@H]3NC(=O)[C@H](CCCCN)NC(=O)[C@H](Cc4ccccc4)NC(=O)[C@H](C)NC(=O)[C@H]([C@@H](C)O)NC(=O)[C@H](CSSC[C@H](NC(=O)[C@H](Cc4ccccc4)NC(=O)[C@H](CO)NC(=O)[C@H](CC(C)C)NC(=O)[C@H](CCCNC(=N)N)NC(=O)[C@H](Cc4ccc(O)cc4)NC(=O)[C@H](CCCCN)NC(=O)[C@H](CC(=O)O)NC(=O)[C@H](CO)NC(=O)[C@H](Cc4c[nH]cn4)NC(=O)[C@H](CCCCN)NC3=O)C(=O)N[C@@H](CCCNC(=N)N)C(=O)N[C@@H](CCCCN)C(=O)N[C@@H]([C@@H](C)O)C(=O)N2)NC(=O)[C@H](CCCNC(=N)N)NC(=O)[C@H](CO)NC(=O)[C@H](CCCCN)NC(=O)[C@@H]2CCCN2C(=O)[C@H]([C@@H](C)CC)NC(=O)[C@H]([C@@H](C)O)NC(=O)[C@H](CC(=O)O)NC1=O [[Lys16, Asp21]ShK-amide]	2.31	0.35	3.63
